# Measured values reported in patent US20240008524A1, “CONSUMABLE” (Nicoventures Trading Limited, priority 2020, published 2024).
# Where two headings read alike, the source gives them in different places.
# Assay: Water solubility of flavoring agents and their flavor glucosides
# Settings: for Glucoside water solubility: flavoring agent in the form of its flavor glucoside
# [1] = free flavoring agent, not bound to sugar, water
Compound,Glucoside water solubility (water) [mg/mL],solubility (water) [mg/mL],other results
"CCCCCCO[C@@H]1O[C@H](CO)[C@@H](O)[C@H](O)[C@H]1O [1-Hexanol glucoside, hex-1-yl-O-β-D-glucopyranoside]",676,–,–
"C=CC(CCCCC)O[C@@H]1O[C@H](CO)[C@@H](O)[C@H](O)[C@H]1O (stereo partly drawn) [1-Octen-3-ol glucoside, 1-octen-3-yl-O-β-D-glucopyranoside]",200,–,–
C=CC(O)CCCCC (centres unmarked) [1-Octen-3-ol],–,1.84,–
"OC[C@H]1O[C@@H](OCCc2ccccc2)[C@H](O)[C@@H](O)[C@@H]1O [2-Phenylethanol glucoside, 2-phenyleth-1-yl-O-β-D-glucopyranoside]",833,–,–
OCCc1ccccc1 [2-Phenylethanol],–,–,Flavoring Agent water solubility [1]: 21.99 mg/mL
CC1=CCC(C(C)(C)O)CC1 (stereo not drawn) [Alpha-Terpineol],–,0.71,–
Cc1ccc(C(C)C)cc1O [Carvacrol],–,–,Flavoring Agent water solubility: 1.25 mg/mL
"CC(C)=CCCC(C)CCO[C@@H]1O[C@H](CO)[C@@H](O)[C@H](O)[C@H]1O (stereo partly drawn) [Citronellol glucoside, 3,7-dimethyl-6-octen-1-yl-O-β-D-glucopyranoside]",519,–,–
CC(C)=CCCC(C)CCO (centres unmarked) [Citronellol],–,0.106,–
"CCc1occc(=O)c1O[C@@H]1O[C@H](CO)[C@@H](O)[C@H](O)[C@H]1O [Ethylmaltol glucoside, 2-ethyl-4H-pyran-4-one-3-O-β-D-glucopyranoside]",662,–,–
CCc1occc(=O)c1O [Ethylmaltol],–,–,Flavoring Agent water solubility [1]: 24.23 mg/mL
"C=CCc1ccc(O[C@@H]2O[C@H](CO)[C@@H](O)[C@H](O)[C@H]2O)c(OC)c1 [Eugenol glucoside, 2-methoxy-4-(2-propen-1-yl)phenyl-O-β-D-glucopyranoside]",15.1,–,–
C=CCc1ccc(O)c(OC)c1 [Eugenol],–,2.46,–
"CC(C)=CCCC(C)=CCCC(C)=CCO[C@@H]1O[C@H](CO)[C@@H](O)[C@H](O)[C@H]1O [Farnesol glucoside, 3,7,11-trimethyl-2,6,10-dodecatrien-1-yl-O-β-D-glucopyranoside]",1,–,–
CC(C)=CCCC(C)=CCCC(C)=CCO [Farnesol],–,0.00129,–
"CC12CCC(C1)C(C)(C)C2O[C@@H]1O[C@H](CO)[C@@H](O)[C@H](O)[C@H]1O (stereo partly drawn) [Fenchol glucoside, 1,3,3-trimethyl-bicyclo[2.2.1]heptan-2-yl-O-β-D-glucopyranoside]",4,–,–
CC12CCC(C1)C(C)(C)C2O (centres unmarked) [Fenchol],–,0.461,–
"CC1=C(O[C@@H]2O[C@H](CO)[C@@H](O)[C@H](O)[C@H]2O)C(=O)C(C)O1 (stereo partly drawn) [Furaneol glucoside, 2,5-dimethyl-3(2H)-furanone-4-O-β-D-glucopyranoside]",731,–,–
CC1=C(O)C(=O)C(C)O1 (centres unmarked) [Furaneol],–,18.5,–
"CC(C)=CCC/C(C)=C/CO[C@@H]1O[C@H](CO)[C@@H](O)[C@H](O)[C@H]1O [Geraniol glucoside, (2E)-3,7-dimethyl-2,6-octadien-1-yl-O-β-D-glucopyranoside]",627,–,–
CC(C)=CCC/C(C)=C/CO [Geraniol],–,0.1,–
CCC1OC(C)=C(O)C1=O (centres unmarked) [Homofuraneol],–,–,Flavoring Agent water solubility [1]: 6.178 mg/mL
"C=CC(C)(CCC=C(C)C)O[C@@H]1O[C@H](CO)[C@@H](O)[C@H](O)[C@H]1O (stereo partly drawn) [Linalool glucoside, 1-ethenyl-1,5-dimethyl-4-hexen-1-yl-O-β-D-glucopyranoside]",564,–,–

Compound,Glucoside water solubility (water) [mg/mL],solubility (water) [mg/mL],other results
C=CC(C)(O)CCC=C(C)C (centres unmarked) [Linalool],–,0.68,–
"Cc1occc(=O)c1O[C@@H]1O[C@H](CO)[C@@H](O)[C@H](O)[C@H]1O [Maltol glucoside, 2-methyl-4H-pyran-4-one-3-O-β-D-glucopyranoside]",535,–,–
Cc1occc(=O)c1O [Maltol],–,10.9,–
"CCC1OC(=O)C(O[C@@H]2O[C@H](CO)[C@@H](O)[C@H](O)[C@H]2O)=C1C (stereo partly drawn) [Maple furanone glucoside, 5-ethyl-3-hydroxy-4-methyl-2(5H)-furanone-3-O-β-D-glucopyranoside]",772,–,–
CCC1OC(=O)C(O)=C1C (centres unmarked) [Maple furanone],–,–,Flavoring Agent water solubility [1]: 74.39 mg/mL
CC1CCC(C(C)C)C(O)C1 (centres unmarked) [Menthol],–,0.49,–
"COC(=O)c1ccccc1N[C@@H]1O[C@H](CO)[C@@H](O)[C@H](O)[C@H]1O [Methylanthranilate glucoside, methyl-2-aminobenzoate-N-β-D-glucopyranoside]",35,–,–
"CC1(C)C2CC=C(CO[C@@H]3O[C@H](CO)[C@@H](O)[C@H](O)[C@H]3O)C1C2 (stereo partly drawn) [Myrtenol glucoside, 6,6-dimethylbicyclo(3.1.1)hept-2-ene-2-methyl-O-β-D-glucopyranoside]",525,–,–
CC1(C)C2CC=C(CO)C1C2 (centres unmarked) [Myrtenol],–,–,Flavoring Agent water solubility [1]: 0.261 mg/mL
"CC(C)=CCC/C(C)=C\CO[C@@H]1O[C@H](CO)[C@@H](O)[C@H](O)[C@H]1O [Nerol glucoside, (2Z)-3,7-dimethyl-2,6-octadien-1-yl-O-β-D-glucopyranoside]",16.6,–,–
CC(C)=CCC/C(C)=C\CO [Nerol],–,0.256,–
"C=C(C)C1CC=C(CO[C@@H]2O[C@H](CO)[C@@H](O)[C@H](O)[C@H]2O)CC1 (stereo partly drawn) [Perillyl alcohol glucoside, p-mentha-1,8-dien-7-yl-O-β-D-glucopyranoside]",485,–,–
C=C(C)[C@@H]1CC=C(CO)CC1 [Perillyl alcohol],–,0.471,–
Oc1ccc2c(c1)OCO2 [Sesamol],–,–,Flavoring Agent water solubility [1]: 14.65 mg/mL
"CC1=C(O[C@@H]2O[C@H](CO)[C@@H](O)[C@H](O)[C@H]2O)C(=O)OC1C (stereo partly drawn) [Sotolon glucoside, 4,5-dimethylfuran-2(5H)-one-3-O-β-D-glucopyranoside]",502,–,–
CC1=C(O)C(=O)OC1C (centres unmarked) [Sotolon],–,–,Flavoring Agent water solubility [1]: 22.28 mg/mL
"COc1cc(CO)ccc1O[C@@H]1O[C@H](CO)[C@@H](O)[C@H](O)[C@H]1O [Vanillin-Alcohol glucoside, 3-methoxy-benzyl alcohol-4-O-β-D-glucopyranoside]",62,–,increase of water solubility (glucoside vs flavoring agent): 32 ×
COc1cc(CO)ccc1O [Vanillin-Alcohol],–,–,"Flavoring Agent water solubility [1]: 2 mg/mL; water solubility (free flavoring agent, at 25° C.): approximately 2 g/I"
"CC/C=C\CCO[C@@H]1O[C@H](CO)[C@@H](O)[C@H](O)[C@H]1O [cis-3-Hexen-1-ol glucoside, (3Z)-3-hexen-1-yl-O-β-D-glucopyranoside]",598,–,–
CC/C=C\CCO [cis-3-Hexen-1-ol],–,16,–
(2/5)-ethyl-5 (or 2)-methyl-3(2H)-furanone-4-O-β-D-glucopyranoside [Homofuraneol glucoside],749,–,–
(S)-2-(4-methyl-3-cyclohexenyl)-2-propanyl-O-β-D-glucopyranoside [Alpha-Terpineol glucoside],172,–,–
